Reference: patent US20090163475A1, “CRYSTALLINE FORM OF BENZAZEPINIUM MALEATE DERIVATIVE” (priority 2005, published 2009)

Key:
[1] = solid-state stability with respect to hygroscopicity / humidity; format: physicochemical
dopamine D3 receptor = dopamine D3 receptor (Homo sapiens, UniProt P35462); assay: affinity for dopamine D3 receptors; format: binding
dopamine D2 receptor = dopamine D2 receptor (Homo sapiens, UniProt P14416); assay: affinity for dopamine D2 receptors; format: binding
[2] = target: T1, serotonin 5-HT2C receptor (Homo sapiens, UniProt P28335); assay: antagonist affinity for serotonin 5-HT2C receptor; format: binding
T1 sequence (P28335 33-458): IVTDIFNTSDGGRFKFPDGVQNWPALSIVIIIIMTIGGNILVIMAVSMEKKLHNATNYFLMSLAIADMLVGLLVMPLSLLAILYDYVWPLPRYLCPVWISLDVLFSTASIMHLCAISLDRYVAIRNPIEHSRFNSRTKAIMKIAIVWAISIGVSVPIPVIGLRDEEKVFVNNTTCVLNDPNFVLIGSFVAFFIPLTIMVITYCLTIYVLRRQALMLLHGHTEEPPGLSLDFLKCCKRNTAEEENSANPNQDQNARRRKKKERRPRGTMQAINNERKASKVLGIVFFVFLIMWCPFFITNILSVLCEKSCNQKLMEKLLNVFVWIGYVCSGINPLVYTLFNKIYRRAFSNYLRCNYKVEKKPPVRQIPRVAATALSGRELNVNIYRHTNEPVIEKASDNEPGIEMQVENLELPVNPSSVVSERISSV

serotonin 5-HT6 receptor = serotonin 5-HT6 receptor (Homo sapiens, UniProt P50406); assay: antagonist affinity for serotonin 5-HT6 receptor; format: binding
Chain of serotonin 5-HT6 receptor (P50406 whole entry): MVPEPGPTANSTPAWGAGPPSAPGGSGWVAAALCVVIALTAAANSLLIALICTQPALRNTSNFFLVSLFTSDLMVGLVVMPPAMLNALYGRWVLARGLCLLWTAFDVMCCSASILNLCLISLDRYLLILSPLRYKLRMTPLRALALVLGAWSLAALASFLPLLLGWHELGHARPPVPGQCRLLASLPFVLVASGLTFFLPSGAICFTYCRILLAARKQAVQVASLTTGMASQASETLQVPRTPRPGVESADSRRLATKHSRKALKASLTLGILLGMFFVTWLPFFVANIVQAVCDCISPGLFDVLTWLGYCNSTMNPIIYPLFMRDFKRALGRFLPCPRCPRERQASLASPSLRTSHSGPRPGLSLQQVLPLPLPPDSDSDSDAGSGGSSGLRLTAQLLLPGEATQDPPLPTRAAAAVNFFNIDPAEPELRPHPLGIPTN

Chain of dopamine D3 receptor (P35462 whole entry, species assumed): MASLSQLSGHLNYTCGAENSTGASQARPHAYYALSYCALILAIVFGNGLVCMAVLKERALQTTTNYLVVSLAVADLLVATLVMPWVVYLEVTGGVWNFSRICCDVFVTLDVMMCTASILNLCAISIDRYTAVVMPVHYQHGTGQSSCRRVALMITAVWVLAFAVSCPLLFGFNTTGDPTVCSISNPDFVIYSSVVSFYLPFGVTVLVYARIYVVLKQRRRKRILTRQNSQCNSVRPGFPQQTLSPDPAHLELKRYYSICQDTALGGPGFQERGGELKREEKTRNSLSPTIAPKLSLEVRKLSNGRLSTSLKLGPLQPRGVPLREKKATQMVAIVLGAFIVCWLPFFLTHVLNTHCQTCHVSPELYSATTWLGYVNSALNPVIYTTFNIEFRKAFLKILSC
Chain of dopamine D2 receptor (P14416 whole entry): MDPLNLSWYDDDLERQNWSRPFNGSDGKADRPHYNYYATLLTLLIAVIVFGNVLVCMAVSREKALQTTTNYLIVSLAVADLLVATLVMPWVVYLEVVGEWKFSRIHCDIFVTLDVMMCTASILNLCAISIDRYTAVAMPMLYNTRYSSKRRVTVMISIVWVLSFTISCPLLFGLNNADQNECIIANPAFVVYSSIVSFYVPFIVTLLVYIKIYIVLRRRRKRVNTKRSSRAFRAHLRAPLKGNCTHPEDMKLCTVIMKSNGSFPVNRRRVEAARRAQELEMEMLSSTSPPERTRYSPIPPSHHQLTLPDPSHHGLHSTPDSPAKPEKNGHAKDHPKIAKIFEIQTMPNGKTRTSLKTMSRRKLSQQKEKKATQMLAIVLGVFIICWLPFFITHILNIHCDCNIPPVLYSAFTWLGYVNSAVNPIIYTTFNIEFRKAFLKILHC

COc1cc2c(cc1S(=O)(=O)c1ccc(OCc3ccc(Cl)cc3)cc1)CCN(C)CC2.O=C(O)/C=C\C(=O)O [Form 2 maleate anhydrate, 7-[4-(4-Chlorobenzyloxy)benzenesulfonyl]-8-methoxy-3-methyl-2,3,4,5-tetrahydro-1H-3-benzazepinium Maleate]
stability with respect to hygroscopicity and loss of water [1]: particular stability | changes when exposed to very high humidity ([1]; very high humidity): reversible changes

COc1cc2c(cc1S(=O)(=O)c1ccc(OCc3ccc(Cl)cc3)cc1)CCN(C)CC2.O=C(O)/C=C\C(=O)O [Form 2 salt, 7-[4-(4-Chlorobenzyloxy)benzenesulfonyl]-8-methoxy-3-methyl-2,3,4,5-tetrahydro-1H-3-benzazepinium maleate]
affinity for dopamine D3 receptor (dopamine D3 receptor): exhibit affinity | affinity for dopamine D3 relative to D2 receptors (dopamine D3 receptor; D3 versus D2): greater affinity for dopamine D3 than for D2 receptors | affinity for dopamine D2 receptor (dopamine D2 receptor): exhibit affinity | antagonist affinity for serotonin 5-HT2C receptor [2]: antagonist affinity | antagonist affinity for serotonin 5-HT6 receptor (serotonin 5-HT6 receptor): antagonist affinity
